From patent publication US11767310B2, “Nicotinamide RIPK1 inhibitors” (AbbVie Inc., priority 2021, dated 2023)
Marks after values point to notes of the source that are not given here.

How the values were obtained:
RIPK1 = RIPK1 (Homo sapiens (Human), UniProt Q13546); assay: RIPK1 Binding Assay; settings: displacement of fluorescent probe, TR-FRET
Description: Compounds were tested for their ability to displace a fluorescent probe from recombinant human RIPK1.
Recombinant human RIPK1 (1-375) was prepared as described in Harris et al., ACS Med. Chem. Letters (2013) 4:1238-1243 (Supplementary Information), with the following exceptions: (i) instead of using the gene sequence from NM_003804.3, the gene was synthesized with codon optimization for BEV expression system, and (ii) the gene was cloned into the vector pFastBac1, not pDEST8.
A fluorescent probe containing an Oregon green fluorophore was synthesized from a compound known to bind to RIPK1.
The assay was performed in a buffer containing 50 mM N-2-Hydroxyethylpiperazine-N′-2-ethanesulfonic acid (HEPES) (pH 7.5), 10 mM MgCl2, 1 mM ethylene diamine tetraacetic acid (EDTA), and 0.01% BRIJ-35 (Polyoxyethylene (23) lauryl ether). Test compounds were solvated in dimethyl sulfoxide (DMSO) at final concentrations 4-fold serially diluted from 100 to 0.000095 uM in technical duplicates into an empty 384 well plate. Recombinant RIPK1 (final concentration of 2.5 nM) was added to the wells and incubated with test compound for 1 hour at room temperature. A solution containing the fluorescent probe (final concentration 5 nM) and an LanthaScreen Tb-anti-GST antibody (Thermofisher Scientific; final concentration of 5 nM) was then added to each well, with the Tb-anti-GST antibody binding to the GST portion of the recombinant RIPK1 and providing the corresponding FRET pair to the fluorescent probe. The plate was incubated for 1 hour at room temperature and read on an Envision plate reader using a time resolved FRET protocol. Data was normalized and analyzed using Studies from Dotmatics.

U937 cells = assay: U937 TNF/zVAD Cytotoxicity Cell Assay; type: cell-based; settings: Homo sapiens, U-937; TNFα 10 ng/mL + Z-VAD FMK 20 μM, 16-20 hours; read-out: U937 TNF/zVAD Induced Cytotoxicity IC50
Description: Compounds were tested for their ability to prevent TNF induced necroptosis in U937 cells. Treatment with TNF and the caspase inhibitor zVAD-FMK results in the activation and phosphorylation of RIPK1 and subsequent phosphorylation of RIPK3 and MLKL (Mixed Lineage Kinase Domain Like Pseudokinase), leading to induction of necroptotic cell death that is measured as a reduction in cell viability. Similar U937 assay protocols have been previously described; see, e.g., Harris et al., ACS Med. Chem. Letters (2013) 4:1238-1243 and Supplementary Information.
Test compounds were solvated in dimethyl sulfoxide (DMSO) and 3-fold serially diluted from 10 uM to 0.0005 uM with technical duplicates into an empty 384 well plate. U937 cells were resuspended at a concentration of 500,000 cells/mL in fresh RPMI (Roswell Park Memorial Institute) 1640 growth medium containing 10% heat inactivated fetal bovine serum (FB1S) and seeded into a 384 well plate containing compounds and incubated for 1 hour at 37° C. Following incubation, the cells were challenged with TNFα (final concentration of 10 ng/mL) and Z-VAD FMK (N-Benzyloxycarbonyl-Val-Ala-Asp(O-Me) fluoromethyl ketone; final concentration of 20 μM) for 16-20 hours at 37° C. Following the incubation with TNFα/Z-VAD, cells were lysed with Cell Titer-Glo and incubated for 5-10 minutes. The plate was then read on an Envision plate reader. Data was normalized and analyzed with Studies from Dotmatics.

[1] = Prodrug bioconversion in intestinal S9 cell fractions; type: in vitro ADME
Description: Phosphatase enzymes are […] expressed with unique tissue specific isoforms and are key catalysts in the conversion of phosphate-containing prodrugs. To determine if exemplary phosphate prodrug compounds of the invention are enzymatically converted to the parent molecule across relevant species, the prodrug compounds were incubated with intestinal S9 cell fractions obtained from mouse, rat, dog, monkey, and human.
[…] Incubations were conducted in the absence and presence of 1 mM sodium orthovanadate, a phosphatase inhibitor. Prodrug depletion and parent formation were monitored by LC-MS/MS and normalized to internal standard as the analyte peak area ratio.

RIPK1, sequence (Q13546 1-375): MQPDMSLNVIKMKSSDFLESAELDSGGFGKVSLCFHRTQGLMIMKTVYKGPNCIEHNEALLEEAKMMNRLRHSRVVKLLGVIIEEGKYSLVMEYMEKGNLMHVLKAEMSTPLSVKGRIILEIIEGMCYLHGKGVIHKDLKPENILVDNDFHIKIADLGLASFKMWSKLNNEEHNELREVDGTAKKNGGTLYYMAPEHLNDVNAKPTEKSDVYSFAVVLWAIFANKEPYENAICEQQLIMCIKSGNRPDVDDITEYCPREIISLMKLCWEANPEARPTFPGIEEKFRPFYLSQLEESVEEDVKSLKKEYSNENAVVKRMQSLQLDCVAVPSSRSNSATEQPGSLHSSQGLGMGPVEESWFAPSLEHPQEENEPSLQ

SMILES: CN(C[C@@H](O)Cc1ccccc1)C(=O)c1cncc(C#Cc2cnn(C(F)F)c2)c1 [Example 2, (S)-5-((1-(difluoromethyl)-1H-pyrazol-4-yl)ethynyl)-N-(2-hydroxy-3-phenylpropyl)-N-methylnicotinamide]
- IC50 (RIPK1): 4 nM
- IC50 (U937 cells): 11 nM

SMILES: CN(C[C@H](Cc1ccccc1)OP(=O)(O)O)C(=O)c1cncc(C#Cc2cnn(C(F)F)c2)c1 [Example 19, (S)-1-(5-((1-(difluoromethyl)-1H-pyrazol-4-yl)ethynyl)-N-methylnicotinamido)-3-phenylpropan-2-yl dihydrogen phosphate]
- Clint (prodrug disappearance) ([1]; Human, 0.01 mg/mL S9 protein, Table F): 1608.5 μL/min/mg intestinal S9 protein
- Clint (prodrug disappearance) ([1]; Human, 0.25 mg/mL S9 protein, Table F): 296 μL/min/mg intestinal S9 protein
- Clint (prodrug disappearance) ([1]; Human, 0.25 mg/mL, Experiment 1): 246 μL/min/mg intestinal S9 protein
- Clint (prodrug disappearance) ([1]; Human, 0.25 mg/mL, Experiment 2): 228 μL/min/mg intestinal S9 protein
- Clint (prodrug disappearance) ([1]; Human, 0.25 mg/mL, Experiment 3): 235 μL/min/mg intestinal S9 protein
- Clint (prodrug disappearance) ([1]; Human, 0.25 mg/mL, Mean of 3 experiments): 236.3 μL/min/mg intestinal S9 protein
- Clint (prodrug disappearance) ([1]; Mouse, 0.01 mg/mL S9 protein, Table F): 116.8 μL/min/mg intestinal S9 protein
- Clint (prodrug disappearance) ([1]; Mouse, 0.25 mg/mL S9 protein, Table F): 54.7 μL/min/mg intestinal S9 protein
- Clint (prodrug disappearance) ([1]; Mouse, 0.25 mg/mL, Experiment 1): 43.1 μL/min/mg intestinal S9 protein
- Clint (prodrug disappearance) ([1]; Mouse, 0.25 mg/mL, Experiment 2): 74.6 μL/min/mg intestinal S9 protein
- Clint (prodrug disappearance) ([1]; Mouse, 0.25 mg/mL, Experiment 3): 42.2 μL/min/mg intestinal S9 protein
- Clint (prodrug disappearance) ([1]; Mouse, 0.25 mg/mL, Mean of 3 experiments): 53.3 μL/min/mg intestinal S9 protein
- Clint (prodrug disappearance) ([1]; Rat, 0.01 mg/mL S9 protein, Table F): <137** μL/min/mg intestinal S9 protein
- Clint (prodrug disappearance) ([1]; Rat, 0.25 mg/mL S9 protein, Table F): 42.4 μL/min/mg intestinal S9 protein
- Clint (prodrug disappearance) ([1]; Rat, 0.25 mg/mL, Experiment 1): 25.6 μL/min/mg intestinal S9 protein
- Clint (prodrug disappearance) ([1]; Rat, 0.25 mg/mL, Experiment 2): 16.9 μL/min/mg intestinal S9 protein
- Clint (prodrug disappearance) ([1]; Rat, 0.25 mg/mL, Experiment 3): 50.6 μL/min/mg intestinal S9 protein
- Clint (prodrug disappearance) ([1]; Rat, 0.25 mg/mL, Mean of 3 experiments): 31 μL/min/mg intestinal S9 protein
